In brackets after ≈: the same amount, converted by molar mass. Like-named read-outs stand apart in the source and are kept apart here. Marks after values point to notes of the source that are not given here.
Experiments:
[1] = tested on: Staphylococcus aureus (Smith Strain ATCC 13709); assay: Staphylococcus aureus mouse protection assay; assay type: in vivo, mice; settings: Staph Conc. 10^6, 10% Mucin, the 13th table
Description: Two of the novel aminoglycoside compounds of the invention were examined for their anitbacterial activity against staphylococcus aureus. Mice were fed with autoclaved commercial food pellets and sterile water ad libitum. Animals were inoculated intraperitoneally with 0.5 mL/mouse of the indicated concentration of S. aureus (ATCC 13709) containing 10% mucin. There were 10 mice in each treatment group and compounds were administered subcutaneously one and 3 hour after infection. Compounds 15a (R4═R5═CH3) and 15j (R4═H, R5═(CH2)2C6H5)) were used at 75 mg/kg, 37.5 mg/kg, 18.8 mg/kg, 9.4 mg/kg, 4.7 mg/kg, 2.3 mg/kg, 1.17 mg/kg and 0.5 mg/kg. Amakacin, paromomycin and neomycin were used as the positive controls at concentrations of 2 mg/kg, 1 mg/kg and 0.5 mg/kg.
Test compound was administered as an aqueous buffer solution (phosphate buffered saline (PBS), pH=7.4).

[2] = molecular target: 18S ribosomal subunit RNA target; assay: Mass spectrometry based binding assay (FTICR), 18S
Description: (§1) In a typical experiment, 10 μL of an aqueous solution containing 100 mM ammonium acetate buffer, 2.5 or 5 μM of each RNA, and 33% isopropyl alcohol (to aid ion desolvation) was prepared with different concentrations of each ligand or ligand mixture Samples were introduced into the electrospray ionization source (negative ionization mode) at 1 μL/min and ions were stored for 1 sec in an RF-only hexapole following desolvation. The abundances were integrated from the respective ions for free RNA and the ligand-RNA complex. The primary (1:1 RNA:ligand) and secondary (1:2 complex, if observed). […] The peak ratios were measured at each concentration, then a plot of complex/free RNA versus concentration of ligand added was fitted to a second (or higher) order binding polynomial to determine the KD.

[3] = tested on: S. Aureus; assay: MIC, S. Aureus; assay type: cell-based
Description: (§2) The MIC assays are carried out in 150 μL volume in duplicate in 96-well clear flat-bottom plates. The bacterial suspension from an overnight culture growth in appropriate medium is added to a solution of test compound in 4% DMSO in water. Final bacterial inoculum is approximately 10^5-10^6 CFU/well. […] Both ampicillin and tetracycline are used as antibiotic-positive controls in each screening assay for S. pyogenes, E. coli imp-, E. coli, S. aureus, E. faecalis, K. pneumoniae and P. vulgaris. Ciprofloxacin is used as an antibiotic positive control in each screening assay for P. aeruginosa.

[4] = tested on: E. Coli; assay: MIC, E. Coli; assay type: cell-based
Description: as §2

[5] = molecular target: 16S ribosomal subunit RNA target; assay: Mass spectrometry based binding assay (FTICR), 16S
Description: as §1, with “[…],” for “2.5 or 5 μM of each RNA,”

[6] = tested on: E. coli S30 bacterial extract (pBestLuc firefly luciferase reporter); assay: Coupled bacterial transcription/translation assay; assay type: biochemical; settings: read-out: Trans/Trans IC50
Description: The DNA template, pBestLuc™ (Promega), is a plasmid containing a reporter gene for firefly luciferase fused to a strong tac promoter and ribosome binding site. Messenger RNA from 1 μg pBestLuc is transcribed and translated in E. coli S30 bacterial extract in the presence or absence of test compound. Compounds are tested in a black 96 well microtiter plate with an assay volume of 35 μL. […] The transcription/translation reaction is incubated for 35 minutes at 37° C. followed by detection of functional luciferase with the addition of 30 μL LucLite™ (Packard). Light output is quantitated on a Packard TopCount.

[7] = FTICR mass spectrometry, Example 105
[8] = FTICR mass spectrometry, run at 100 nM RNA, Example 105
[9] = marked with an asterisk: run at 500 nM RNA, Example 105

Molecule | Kd [2, 7] [nM] | MIC S. Aureus ([3]; Example 105) | MIC E. Coli. ([4]; Example 105) | Kd [5, 8] [nM] | IC50 ([6]; Example 105) [nM] | other results
NCC[C@H](O)C(=O)N[C@@H]1C[C@H](N)[C@@H](O[C@H]2O[C@H](CN)[C@@H](O)[C@H](O)[C@H]2O)[C@H](O)[C@H]1O[C@H]1O[C@H](CO)[C@@H](O)[C@H](N)[C@H]1O [Amikacin, reference compound] | – | – | – | – | – | # Dead mice/Total mice in group ([1]; 0.5 mg/kg subcutaneously): 8/10; # Dead mice/Total mice in group ([1]; 1 mg/kg subcutaneously): 10/10; # Dead mice/Total mice in group ([1]; 2 mg/kg subcutaneously): 8/10
NCC1OC(OC2C(CO)OC(OC3C(O)C(N)CC(N)C3OC3OC(CO)C(O)C(O)C3N)C2OCCNc2cccnc2)C(N)C(O)C1O (stereo not drawn) [Compound 9a] | 3500 | 0.6-1^ uM | 3-6^b uM | 600 | 100 | –
NCC1OC(OC2C(CO)OC(OC3C(O)C(N)CC(N)C3OC3OC(CO)C(O)C(O)C3N)C2OCCNCCc2ccc(-c3ccccc3)cc2)C(N)C(O)C1O (stereo not drawn) [Compound 9aa] | – | – | – | – | – | Kd ([2]; Example 106): 3500 nM; MIC S. Aureus ([3]; Example 106): 5 to 10 µM; MIC E. Coli. ([4]; Example 106): 20 to 40 µM; Kd ([5]; Example 106): 900 nM; IC50 ([6]; Example 106): 1500 nM
NCC1OC(OC2C(CO)OC(OC3C(O)C(N)CC(N)C3OC3OC(CO)C(O)C(O)C3N)C2OCCNCCc2ccc3ccccc3c2)C(N)C(O)C1O (stereo not drawn) [Compound 9ak] | 3500 | 1-3. uM | 10 to 20 µM | 700 | 300 | –
NCCCNCCOC1C(OC2C(O)C(N)CC(N)C2OC2OC(CO)C(O)C(O)C2N)OC(CO)C1OC1OC(CN)C(O)C(O)C1N (stereo not drawn) [Compound 9c] | – | 3 to 6 µM | 25 to 50 µM | – | 300 | Kd [5, 9]: 400 nM
NCCNCCOC1C(OC2C(O)C(N)CC(N)C2OC2OC(CO)C(O)C(O)C2N)OC(CO)C1OC1OC(CN)C(O)C(O)C1N (stereo not drawn) [Compound 9d] | – | 2 to 3 µM | 6 to 12 µM | 700 | 300 | –
NCC1OC(OC2C(CO)OC(OC3C(O)C(N)CC(N)C3OC3OC(CO)C(O)C(O)C3N)C2OCCNCc2nc3ccccc3[nH]2)C(N)C(O)C1O (stereo not drawn) [Compound 9e] | 11000 | >100 µM | >100 µM | 3900 | 200 | –
NCCOC1C(OC2C(O)C(N)CC(N)C2OC2OC(CO)C(O)C(O)C2N)OC(CO)C1OC1OC(CN)C(O)C(O)C1N (stereo not drawn) [Compound 9f] | – | 2 to 3 µM | 12 to 25 µM | 300 | 400 | –
CN(C)CCOC1C(OC2C(O)C(N)CC(N)C2OC2OC(CO)C(O)C(O)C2N)OC(CO)C1OC1OC(CN)C(O)C(O)C1N (stereo not drawn) [Compound 9g] | – | 6 to 12 µM | 12 to 52 µM | – | 200 | Kd [5, 9]: 900 nM
NCCN(CCN)CCOC1C(OC2C(O)C(N)CC(N)C2OC2OC(CO)C(O)C(O)C2N)OC(CO)C1OC1OC(CN)C(O)C(O)C1N (stereo not drawn) [Compound 9h] | – | 25 to 50 µM | >50 µM | 9200 | 1000 | –
NCC1OC(OC2C(CO)OC(OC3C(O)C(N)CC(N)C3OC3OC(CO)C(O)C(O)C3N)C2OCCNC2CCCNC2)C(N)C(O)C1O (stereo not drawn) [Compound 9j] | 5000 | 3 to 6 µM | 1.5-3^ uM | 100 | 100 | –
NCC1OC(OC2C(CO)OC(OC3C(O)C(N)CC(N)C3OC3OC(CO)C(O)C(O)C3N)C2OCCNCC2CCCNC2)C(N)C(O)C1O (stereo not drawn) [Compound 9k] | 2600 | 3 to 6 µM | 1.5-3^ uM | 300 | 40 | –
NCC1OC(OC2C(CO)OC(OC3C(O)C(N)CC(N)C3OC3OC(CO)C(O)C(O)C3N)C2OCCNc2ccccc2)C(N)C(O)C1O (stereo not drawn) [Compound 9l] | – | 6 to 12 µM | 50 to 100 µM | – | 100 | –
NCC1OC(OC2C(CO)OC(OC3C(O)C(N)CC(N)C3OC3OC(CO)C(O)C(O)C3N)C2OCCNc2cnc3ccccc3c2)C(N)C(O)C1O (stereo not drawn) [Compound 9m] | 900 | 1 to 2 µM | 12 to 25 µM | 100 | 100 | –
NCC1OC(OC2C(CO)OC(OC3C(O)C(N)CC(N)C3OC3OC(CO)C(O)C(O)C3N)C2OCCNC2CCCCC2)C(N)C(O)C1O (stereo not drawn) [Compound 9n] | 400 | 3 to 5 µM | 3 to 6 µM | 100 | 200 | –
NCC1OC(OC2C(CO)OC(OC3C(O)C(N)CC(N)C3OC3OC(CO)C(O)C(O)C3N)C2OCCNCCc2cccnc2)C(N)C(O)C1O (stereo not drawn) [Compound 9o] | 1000 | 0.6-1^ uM | 6 to 12 µM | 200 | 200 | –
NCC1OC(OC2C(CO)OC(OC3C(O)C(N)CC(N)C3OC3OC(CO)C(O)C(O)C3N)C2OCCNCc2ccccc2)C(N)C(O)C1O (stereo not drawn) [Compound 9q] | 300 | 3 to 5 µM | 3 to 6 µM | 100 | 800 | –
NCC1OC(OC2C(CO)OC(OC3C(O)C(N)CC(N)C3OC3OC(CO)C(O)C(O)C3N)C2OCCNCc2ccc(N)nc2)C(N)C(O)C1O (stereo not drawn) [Compound 9s] | 500 | 0.3 to 0.6 µM | 3 to 6 µM | 100 | 200 | –
NCC1OC(OC2C(CO)OC(OC3C(O)C(N)CC(N)C3OC3OC(CO)C(O)C(O)C3N)C2OCCNCc2ccnc(N)c2)C(N)C(O)C1O (stereo not drawn) [Compound 9t] | 300 | 0.6-1^ uM | 6 to 12 µM | 20 | 700 | –
NCC1OC(OC2C(CO)OC(OC3C(O)C(N)CC(N)C3OC3OC(CO)C(O)C(O)C3N)C2OCCNc2ccccn2)C(N)C(O)C1O (stereo not drawn) [Compound 9u] | 22000 | 1 to 2 µM | 12 to 25 µM | 5000 | 400 | –
COc1cc(CCNCCOC2C(OC3C(O)C(N)CC(N)C3OC3OC(CO)C(O)C(O)C3N)OC(CO)C2OC2OC(CN)C(O)C(O)C2N)cc(OC)c1 (stereo not drawn) [Compound 9y] | – | – | – | – | – | MIC S. Aureus ([3]; Example 106): 5 to 10 µM; MIC E. Coli. ([4]; Example 106): 10 to 20 µM; IC50 ([6]; Example 106): 200 nM
NCCCCNCC1OC(OC2C(N)CC(N)C(O)C2OC2OC(CO)C(OC3OC(CN)C(O)C(O)C3N)C2O)C(N)C(O)C1O (stereo not drawn) [Compound 15f] | – | – | – | – | – | Kd ([2]; Example 108): 6000 nM; MIC S. Aureus ([3]; Example 108): 10 to 20 µM; MIC E. Coli. ([4]; Example 108): 2.5-5^ uM; Kd ([5]; Example 108): 6300 nM
NCC1OC(OC2C(CF)OC(OC3C(O)C(N)CC(N)C3OC3OC(CO)C(O)C(O)C3N)C2O)C(N)C(O)C1O (stereo not drawn) [Compound 61, 5″-deoxy-5″-fluoro paromomycin] | – | – | – | 1100 | 300 | MIC ([3]; Staphylococcus aureus, Example 105): 12 to 25 µM (≈ 7.41 to 15.4 µg/mL); MIC ([4]; Escherichia coli, Example 105): > 50 µM
NC[C@@H]1O[C@H](O[C@H]2[C@@H](O)[C@H](O[C@@H]3[C@@H](O)[C@H](N)C[C@H](N)[C@H]3O[C@H]3O[C@H](CN)[C@@H](O)[C@H](O)[C@H]3N)O[C@@H]2CO)[C@H](N)[C@@H](O)[C@@H]1O [Neomycin B, reference compound] | – | – | – | – | – | Kd ([2]; Example 106): 300 nM; Kd ([5]; Example 106): 40 nM; IC50 ([6]; Example 106): 200 nM
neomycin [reference compound] | – | – | – | – | – | # Dead mice/Total mice in group ([1]; 0.5 mg/kg subcutaneously): 7/10; # Dead mice/Total mice in group ([1]; 1 mg/kg subcutaneously): 10/10; # Dead mice/Total mice in group ([1]; 2 mg/kg subcutaneously): 4/10

Source: patent US8569264B2, “Antibacterial 4,5-substituted aminoglycoside analogs having multiple substituents” (ISIS Pharmaceuticals, Inc., priority 2005, dated 2013)
